Here are results for 1 substance from patent publication US7960131B2, “Functional genomic pore assay for mixed cell populations” (Wisconsin Alumni Research Foundation, priority 2003, dated 2011).

One assay addresses T1, P2X7 wild type (Homo sapiens, UniProt Q99572).
T1 construct: expressed in transfected cells
T1 sequence (Q99572 1-595): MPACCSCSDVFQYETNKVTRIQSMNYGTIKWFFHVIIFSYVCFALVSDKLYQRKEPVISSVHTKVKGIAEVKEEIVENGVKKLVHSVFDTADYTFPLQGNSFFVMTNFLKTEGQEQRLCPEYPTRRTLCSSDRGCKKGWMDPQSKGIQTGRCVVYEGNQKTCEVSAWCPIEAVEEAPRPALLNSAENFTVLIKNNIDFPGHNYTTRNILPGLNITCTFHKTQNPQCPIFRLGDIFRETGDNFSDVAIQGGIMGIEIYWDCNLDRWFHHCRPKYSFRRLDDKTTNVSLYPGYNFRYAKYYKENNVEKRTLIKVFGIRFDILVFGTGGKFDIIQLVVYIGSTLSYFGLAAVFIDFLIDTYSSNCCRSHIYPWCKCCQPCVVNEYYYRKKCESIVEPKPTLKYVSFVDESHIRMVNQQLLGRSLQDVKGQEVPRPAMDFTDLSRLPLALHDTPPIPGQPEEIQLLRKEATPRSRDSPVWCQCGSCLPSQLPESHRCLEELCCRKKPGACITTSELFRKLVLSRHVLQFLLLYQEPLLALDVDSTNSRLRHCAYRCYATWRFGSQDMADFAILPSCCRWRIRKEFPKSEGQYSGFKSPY
In words: YO-PRO-1 uptake fluorimetric plate assay in transfected HEK 293 cells, P2X7 wild type. To be noted: HEK cells expressing P2X7 wild type, HEPES-buffered saline. It is filed as cell-based. The source says:
(§1) Recombinant Expression and Functional Characterization of Variant P2RX7 Alleles. A pcDNA3 expression vector containing a cloned human P2RX7 cDNA associated with normal pore activity was subjected to point mutagenesis using the Quick Change Kit (Stratagene Inc., city, state) to create the variants P2X7-G150R, P2X7-Q460R, and P2X7-E496A. HEK 293 cells were transfected by the Superfect liposomal method and stable populations were selected by G418 resistance. Expression of P2X7 mRNA and protein in unstimulated transfected HEK cell cultures was verified by RT-PCR and immunoblotting as previously described.
(§2) YO-PRO-1 fluorescence was measured by a Synergy-HT fluorescent plate reader (Biotek, city, state) using X±Y nm excitation and A±B emission filters.

The target in a further assay is T2, P2X7-G150R (Homo sapiens, UniProt Q99572, G150R).
T2 construct: expressed in transfected cells
T2 sequence (Q99572 1-595 G150R): T1 sequence (Q99572 1-595) with G150R
Put plainly: YO-PRO-1 uptake fluorimetric plate assay in transfected HEK 293 cells, P2X7-G150R. It is filed as cell-based. As to conditions: G150R (G474A) mutant, also in more permissive buffer lacking NaCl.
Description: as §1, §2

Changes are numbered by the printed parent chain.

For “2′-3′-O-(4-benzoylbenzoyl)-adenosine 5′-triphosphate [Bz-ATP]”, at P2X7 wild type, the concentration giving a half-maximal response (EC50) worked out at 30 µM and the “increase of YO-PRO-1 fluorescence by Bz-ATP stimulation” value is reported as “roughly four”. The “agonist stimulated increase in YO-PRO-1 fluorescence” value on P2X7-G150R is listed as “loss of pore function”. Besides, the “agonist stimulated increase in YO-PRO-1 fluorescence” value at P2X7-G150R (listed as BzATP) is given as “no agonist stimulated increase in fluorescence”.

In general, EC50 refers to the midpoint of the concentration-response curve.
